Key:
[1] = target: T1, trypsin-activated recombinant human renin (Homo sapiens, UniProt P00797); experiment: Renin fluorescence assay (internally quenched peptide substrate); type: biochemical
T1 sequence (P00797 67-406): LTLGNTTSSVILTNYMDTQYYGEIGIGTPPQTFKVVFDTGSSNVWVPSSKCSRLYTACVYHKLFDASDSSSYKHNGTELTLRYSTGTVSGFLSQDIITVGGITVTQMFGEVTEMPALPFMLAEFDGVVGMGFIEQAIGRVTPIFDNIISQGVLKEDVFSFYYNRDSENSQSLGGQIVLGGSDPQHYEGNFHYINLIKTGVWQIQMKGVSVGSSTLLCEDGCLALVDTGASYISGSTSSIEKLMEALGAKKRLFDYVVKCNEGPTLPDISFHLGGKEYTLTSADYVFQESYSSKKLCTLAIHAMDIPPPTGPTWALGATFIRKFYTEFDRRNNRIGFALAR
Procedure, shortened: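 Compounds (1 nM–10 μM final, DMSO) were mixed with internally quenched angiotensinogen-sequence substrate in pH 7.0 BES/NaCl/BSA buffer, then 0.2-2 nM trypsin-activated human renin added. Rate from the linear fluorescence increase (340 nm excitation, 495 nm emission) over 60-360 min at rt, compared with uninhibited control.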

[2] = target: T2, plasma renin activity (PRA) in pooled mixed-gender human plasma (Homo sapiens, UniProt P00797); experiment: Plasma renin activity (PRA) assay in human plasma; type: biochemical
T2 construct: pooled mixed-gender human plasma stabilized with EDTA; from tissue; host or cells: pooled mixed-gender human plasma (EDTA)
T2 sequence (P00797 67-406): T1 sequence (P00797 67-406)
Method: Incubations mixtures contain in the final volume of 250 μL 95.5 mM N,N-bis(2-hydroxyethyl)-2-aminoethanesulfonic acid, pH 7.0, 8 mM EDTA, 0.1 mM neomycin sulfate, 1 mg/mL sodium azide, 1 mM phenylmethanesulfonyl fluoride, 2% DMSO and 87.3% of pooled mixed-gender human plasma stabilized with EDTA. For plasma batches with low PRA (less than 1 ng/ml/hr) ˜2 pM of recombinant human renin is added to achieve PRA of 3-4 ng/ml/hr. The cleavage of endogenous angiotensinogen in plasma is carried out at 37° C. for 90 min and the product angiotensin I is measured by competitive radioimmunoassay using DiaSorin PRA kit.

IC50 ([1]; compounds I*) [nM]	IC50 ([1]; compounds of Formula (XL)) [nM]	IC50 ([2]; compounds of Formula (XL)) [nM]	SMILES	other results
			CNC[C@@H](CC1CCCOC1)NC(=O)N1CCC[C@@H]([C@@H](OCCNC(=O)OC)c2cc(F)cc(Cl)c2)C1 (single isomer, unassigned) [Example L-3c]	IC50 ([1]; compounds of Formula (L)): < 10 nM; IC50 ([2]; compounds of Formula (L)): < 10 nM
			CNC[C@@H](CC1CCCOC1)NC(=O)N1CCC[C@@H]([C@@H](OCCNC(=O)OC)c2cc(F)cc(Cl)c2)C1 (single isomer, unassigned) [Example L-3d]	IC50 ([1]; compounds of Formula (L)): < 20 nM; IC50 ([2]; compounds of Formula (L)): < 20 nM
< 20			CNC[C@H](C[C@H]1CCC(C)(C)OC1)NC(=O)N1CCC[C@@H]([C@@H](OCCNC(=O)OC)c2cccc(F)c2)C1 [I*-154a, methyl 2-((R)-(3-fluorophenyl)((R)-1-((S)-1-((R)-6,6-dimethyl-tetrahydro-2H-pyran-3-yl)-3-(methylamino)propan-2-ylcarbamoyl)piperidin-3-yl)methoxy)ethylcarbamate]	
< 10			CNC[C@H](C[C@H]1CCC(C)(C)OC1)NC(=O)N1CCC[C@@H]([C@@H](OCCNC(=O)OC)c2cc(F)cc(F)c2)C1 [I*-155a, methyl 2-((R)-(3,5-difluorophenyl)((R)-1-((S)-1-((R)-6,6-dimethyl-tetrahydro-2H-pyran-3-yl)-3-(methylamino)propan-2-ylcarbamoyl)piperidin-3-yl)methoxy)ethylcarbamate]	
< 20			CNC[C@H](C[C@H]1CCC(C)(C)OC1)NC(=O)N1CCC[C@@H]([C@@H](OCCNC(=O)OC)c2ccccc2)C1 [I*-156a, methyl 2-((R)—((R)-1-((S)-1-((R)-6,6-dimethyl-tetrahydro-2H-pyran-3-yl)-3-(methylamino)propan-2-ylcarbamoyl)piperidin-3-yl)(phenyl)methoxy)ethylcarbamate]	
< 10			CNC[C@H](C[C@H]1CCC(C)(C)OC1)NC(=O)N1CCC[C@@H]([C@@H](OCCNC(=O)OC)c2cccc(Cl)c2)C1 [I*-157a, methyl 2-((R)-(3-chlorophenyl)((R)-1-((S)-1-((R)-6,6-dimethyl-tetrahydro-2H-pyran-3-yl)-3-(methylamino)propan-2-ylcarbamoyl)piperidin-3-yl)methoxy)ethylcarbamate]	
< 10			CNC[C@H](C[C@H]1CCC2(CC2)OC1)NC(=O)N1CCC[C@@H]([C@@H](OCCNC(=O)OC)c2cccc(Cl)c2)C1 [I*-158a, methyl 2-((R)-(3-chlorophenyl)((R)-1-((S)-1-((R)-4-oxaspiro[2.5]octan-6-yl)-3-(methylamino)propan-2-ylcarbamoyl)piperidin-3-yl)methoxy)ethylcarbamate]	
< 10			CNC[C@H](C[C@H]1CCC2(CC2)OC1)NC(=O)N1CCC[C@@H]([C@@H](OCCNC(=O)OC)c2cccc(F)c2)C1 [I*-159a, methyl 2-((R)-(3-fluorophenyl)((R)-1-((S)-1-((R)-4-oxaspiro[2.5]octan-6-yl)-3-(methylamino)propan-2-ylcarbamoyl)piperidin-3-yl)methoxy)ethylcarbamate]	
< 1			CNC[C@H](C[C@H]1CCC2(CC2)OC1)NC(=O)N1CCC[C@@H]([C@@H](OCCNC(=O)OC)c2cc(F)cc(F)c2)C1 [I*-160a, methyl 2-((R)-(3,5-difluorophenyl)((R)-1-((S)-1-((R)-4-oxaspiro[2.5]octan-6-yl)-3-(methylamino)propan-2-ylcarbamoyl)piperidin-3-yl)methoxy)ethylcarbamate]	
	< 10	< 10	COC(=O)NCCO[C@@H](c1cccc(Cl)c1)[C@@H]1CCCN(C(=O)NC[C@@H](N)C[C@H]2CCCOC2)C1 [XL-1, methyl 2-((R)-((R)-1-((S)-2-amino-3-((R)-tetrahydro-2H-pyran-3-yl)propylcarbamoyl)piperidin-3-yl)(3-chlorophenyl)methoxy)ethylcarbamate]	
	< 10	< 20	COC(=O)NCCO[C@@H](c1cccc(F)c1)[C@@H]1CCCN(C(=O)NC[C@@H](N)C[C@H]2CCCOC2)C1 [XL-2, methyl 2-((R)-((R)-1-((S)-2-amino-3-((R)-tetrahydro-2H-pyran-3-yl)propylcarbamoyl)piperidin-3-yl)(3-fluorophenyl)methoxy)ethylcarbamate]	
	< 10	< 10	COC(=O)NCCO[C@@H](c1cc(F)cc(Cl)c1)[C@@H]1CCCN(C(=O)NC[C@@H](N)C[C@H]2CCCOC2)C1 [XL-3, methyl 2-((R)-((R)-1-((S)-2-amino-3-((R)-tetrahydro-2H-pyran-3-yl)propylcarbamoyl)piperidin-3-yl)(3-chloro-5-fluorophenyl)methoxy)ethylcarbamate]	
	< 10	< 10	COC(=O)NCCO[C@@H](c1cc(F)cc(F)c1)[C@@H]1CCCN(C(=O)NC[C@@H](N)C[C@H]2CCCOC2)C1 [XL-4, methyl 2-((R)-((R)-1-((S)-2-amino-3-((R)-tetrahydro-2H-pyran-3-yl)propylcarbamoyl)piperidin-3-yl)(3,5-difluorophenyl)methoxy)ethylcarbamate]	
	< 1	< 1	COC(=O)NCCO[C@@H](c1cc(Cl)ccc1C)[C@@H]1CCCN(C(=O)NC[C@@H](N)C[C@H]2CCCOC2)C1 [XL-5, methyl 2-((R)-((R)-1-((S)-2-amino-3-((R)-tetrahydro-2H-pyran-3-yl)propylcarbamoyl)piperidin-3-yl)(5-chloro-2-methylphenyl)methoxy)ethylcarbamate]	
	< 10	< 50	COC(=O)NCCO[C@@H](c1cc(F)ccc1C)[C@@H]1CCCN(C(=O)NC[C@@H](N)C[C@H]2CCCOC2)C1 [XL-6, methyl 2-((R)-((R)-1-((S)-2-amino-3-((R)-tetrahydro-2H-pyran-3-yl)propylcarbamoyl)piperidin-3-yl)(5-fluoro-2-methylphenyl)methoxy)ethylcarbamate]	
	< 1	< 10	CN[C@H](CNC(=O)N1CCC[C@@H]([C@@H](OCCNC(=O)OC)c2cc(Cl)ccc2C)C1)C[C@H]1CCCOC1 [XL-8, methyl 2-((R)-(5-chloro-2-methylphenyl)((R)-1-((S)-2-(methylamino)-3-((R)-tetrahydro-2H-pyran-3-yl)propylcarbamoyl)piperidin-3-yl)methoxy)ethylcarbamate]	

— patent US8487108B2, “Piperidinyl carbamate intermediates for the synthesis of aspartic protease inhibitors” (Vitae Pharmaceuticals, Inc., priority 2005, dated 2013)
